Measured values published in publication PMC11259696, “Small molecule MarR modulators potentiate metronidazole antibiotic activity in aerobic E. coli by inducing activation by the nitroreductase NfsA” (The Journal of Biological Chemistry, 2024).
≈ marks a conversion by molar mass, not a printed value.

Key:
MarR = biological target: T1, MarR (Escherichia coli, UniProt P27245); assay: thermal shift assay with Kd (ΔTm […] °C); EMSA release of marO DNA (EC50 […]); type: binding
T1 construct: recombinant His-tagged MarR (pET15b, gene from BW25113)

E. coli ΔtolC = test system: T2, E. coli ΔtolC; assay: microbe, parasite or virus in culture; design: resazurin microtiter MIC90 in CAMHB, aerobic, 2-fold dilutions, fluorescence; turnover below 10% of control; conditions: Escherichia coli, 5 h; MIC90, antibiotic alone, aerobic; read-out: MIC90 against E. coli ∆tolC under aerobic conditions (µg/mL) / Alone
T2 construct: BW25113 ΔtolC efflux-deficient tolC deletion strain
Method: The MIC was determined using the colorimetric resazurin microtiter assay. Experiments were performed in 96-well plate format with a 100 μl final volume. Briefly, a suspension of an E. coli strain of interest was prepared in CAMHB (BD) at an A600 of 0.001. When required, boosters or arabinose were added to the suspension, and MTZ or NFZ antibiotics were tested in a concentration gradient through serial 2-fold dilutions. After 5 h of incubation at 37 °C, 10 μl of resazurin 12.5% was added to each well, and an additional incubation was carried out for 1.5 h. Fluorescence was measured using a Fluostar Optima BMG Labtech (Ex: 530 nm; Em: 590 nm). Values were converted to resazurin turnover based on minimal (no bacteria added to the medium) and maximal (no antibiotic added) fluorescence values. MIC90 values were determined when resaruzin turnover was ˂10% of control.

NfsA [1] = biological target: T3, NfsA (Escherichia coli, UniProt P17117); assay: EPR detection of MTZ radical anion formed by purified NfsA (1-electron reduction); NADPH consumption by UHPLC-MS; type: biochemical
T3 construct: recombinant His-tagged NfsA (pET28, gene from BW25113)
T3 sequence (P17117 1-240): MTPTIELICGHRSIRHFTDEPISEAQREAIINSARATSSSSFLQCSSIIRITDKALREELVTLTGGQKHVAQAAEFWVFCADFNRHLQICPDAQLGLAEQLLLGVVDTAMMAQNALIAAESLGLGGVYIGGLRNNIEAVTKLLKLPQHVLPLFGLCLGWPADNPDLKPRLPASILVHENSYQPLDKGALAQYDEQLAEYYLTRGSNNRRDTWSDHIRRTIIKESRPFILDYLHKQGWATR

NfsA [2] = biological target: T3, NfsA; assay: UHPLC-MS of NADPH consumption and NADP+ production by purified NfsA; type: biochemical
NfsA [3] = biological target: T3, NfsA; assay: UHPLC-MS turnover by purified NfsA with NADPH consumption and GSH trapping; type: biochemical
NfsA [4] = biological target: T3, NfsA; assay: reduction by purified recombinant NfsA (2-electron reduction); type: biochemical
[5] = test system: MarR (His-tagged) (Escherichia coli BW25113); assay: EMSA; conditions: EMSA: His-MarR 5 uM preincubated with BDM76441 15 min 25 C, then 100 nM marO 15 min 25 C (10 ul); 6% DNA retardation gel, 0.5x TBE, 150 V 45 min; binding …

T1 sequence (P27245 whole entry): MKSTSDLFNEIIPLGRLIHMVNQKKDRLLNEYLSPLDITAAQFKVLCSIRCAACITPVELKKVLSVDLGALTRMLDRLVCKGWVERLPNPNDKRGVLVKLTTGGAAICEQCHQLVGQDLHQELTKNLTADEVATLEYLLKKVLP

O=C(Nc1ccc(I)cc1C(=O)O)c1cccs1 [BDM76441]
Kd (MarR): 9.8 ± 1.6 µM

O=C(Cn1ccnc1[N+](=O)[O-])NCc1ccccc1 [Benznidazole]
MIC90 (E. coli ΔtolC): 62.5 µg/mL (≈ 240 µM)

Cc1ncc([N+](=O)[O-])n1C [Dimetridazole]
MIC90 (E. coli ΔtolC): > 500 µg/mL

Cc1ncc([N+](=O)[O-])n1CCO [MTZ, metronidazole]
MIC90 (E. coli ΔtolC): > 500 µg/mL | EPR detection of MTZ radical anion formed by purified NfsA (1-electron reduction) (NfsA [1]): these results confirmed the formation of MTZ radical anions by NfsA under aerobic conditions

NC(=O)C1=CN([C@@H]2O[C@H](COP(=O)(O)OP(=O)(O)OC[C@H]3O[C@@H](n4cnc5c(N)ncnc54)[C@H](OP(=O)(O)O)[C@@H]3O)[C@@H](O)[C@H]2O)C=CC1 [NADPH]
UHPLC-MS of NADPH consumption and NADP+ production by purified NfsA (NfsA [2]): rapid biotransformation of NFZ accompanied by a conversion of NADPH to NADP+ as measured by UHPLC-MS analysis

NC(=O)N/N=C/c1ccc([N+](=O)[O-])o1 [NFZ, nitrofurazone]
UHPLC-MS turnover by purified NfsA with NADPH consumption and GSH trapping (NfsA [3]): with purified recombinant NfsA, we observed a rapid biotransformation of NFZ accompanied by a conversion of NADPH to NADP+ | MIC90 (E. coli ΔtolC): 15.6 µg/mL (≈ 78.7 µM)

O=[N+]([O-])c1cncn1CCN1CCOCC1 [Nimorazole]
MIC90 (E. coli ΔtolC): > 500 µg/mL

Cc1ncc([N+](=O)[O-])n1CC(O)CCl (centres unmarked) [Ornidazole]
MIC90 (E. coli ΔtolC): > 500 µg/mL

Cc1ncc([N+](=O)[O-])n1CC(C)O (centres unmarked) [Secnidazole]
MIC90 (E. coli ΔtolC): > 500 µg/mL

Cc1ncc([N+](=O)[O-])n1CCCO [Ternidazole]
MIC90 (E. coli ΔtolC): > 500 µg/mL

CC1=CC(=O)c2ccccc2C1=O [menadione]
reduction by purified recombinant NfsA (2-electron reduction) (NfsA [4]): confirmed that NfsA could reduce both menadione (2-electron reduction) and ferrocyanide (1-electron reduction)

marO (marRAB promoter PCR fragment)
IC50 [5]: 38 µM
